According to patent US7977326B2, “Supportive treatment of liver disease” (priority 2004, dated 2011):
Where two headings read alike, the source gives them in different places.

How the values were obtained:
[1] = test system: microvascular blood flow within the liver; conditions: in vivo; cited from earlier work
[2] = test system: piglet hepatic microsomal membranes; assay: Parallel studies using H2O2 as a free radical generator; type: biochemical
Hepatic liver microsomes = conditions: for Fluorescence Activity: 1 mM AAPH, n=6
Description: Hepatic liver microsomes were obtained from 4 healthy piglets as described previously. Microsomes were stored at −80° C. until required for study. Concentration of microsomes was 1 mg/ml. Diltiazem concentrations were 50 and 500 μM, Thiamine concentrations tested included 10, 50, and 100 μM. Free radical generator AAPH was 1 mM. The study detected hepatic lipid peroxidation products by analyzing the fluorescence activity of the dye DCFH by a plate reader as described in our previous report.
DCF-DA was treated with 2M NaOH and MeOH for 2 hours and after which time it was neutralized with HCl to yield the intracellular form of DCFH as described by the manufacturer. Hepatic microsomes were diluted to 1 mg/ml using Phosphate Buffered Saline (PBS). Microsomes were incubated with various concentrations of diltiazem, thiamine or in combination at 37° C. for 1 hour. Control microsomes were incubated with PBS (no drug treatment). Microsomal mixture was then incubated with 1 mM AAPH for 1 hour to initiate free radical induced lipid peroxidation for 1 hour at 37° C. Following incubation, the microsomal mixture was centrifuged at 2000 rpm using 5000 MWCO ultracentrifuge tubes and the procedure repeated twice with PBS to remove any AAPH and drug. Lipid peroxidized microsomes were incubated with 10 μM DCFH for 15 minutes and fluorescence activity recorded using a fluorescence plate reader.

[3] = test system: piglet hepatic microsomal membranes; assay: DCF activity in AAPH induced free radical release in microsomes (lipid peroxidation); type: biochemical; parameters: DCF activity in AAPH induced free radical release: unit not given here; conditions: for inhibition of membrane oxidation (reduction in DCF activity): 0-1000 μM, AAPH; for DCF activity in AAPH induced free radical release: one hour at 37° C. then one hour AAPH
Description: The protective effect of diltiazem on cell membranes was examined in piglet hepatic microsomal membranes obtained from the livers of 3-week-old female piglets. […] Following incubation the microsomal mixture was centrifuged at 2000 rpm to remove excess AAPH and diltiazem. The extent of reactive oxygen species mediated lipid peroxidation in the microsomal membranes was then measured employing the fluorescence market dichlorofluoresen (DCF, 10μ for 15 min). Image analysis.

[4] = test system: patients with Hepatitis B; conditions: cited from earlier work

SMILES | effect on microvascular blood flow within the liver [1] | protection against H2O2 as free radical generator [2] | Fluorescence Activity (Hepatic liver microsomes; Diltiazem 50 μM) | Fluorescence Activity (Hepatic liver microsomes; Diltiazem 500 μM) | inhibition of membrane oxidation (reduction in DCF activity) [3] | DCF activity in AAPH induced free radical release ([3]; 5 μM) | DCF activity in AAPH induced free radical release ([3]; 50 μM) | DCF activity in AAPH induced free radical release ([3]; 250 μM) | DCF activity in AAPH induced free radical release ([3]; 500 μM) | DCF activity in AAPH induced free radical release ([3]; 1000 μM) | Fluorescence Activity (Hepatic liver microsomes; Thiamine 10 μM) | Fluorescence Activity (Hepatic liver microsomes; Thiamine 50 μM) | Fluorescence Activity (Hepatic liver microsomes; Thiamine 100 μM) | effect on fluorescence activity (free radical release), in words (Hepatic liver microsomes; thiamine added to microsomes) | effect on liver function [4]
COc1ccc([C@@H]2Sc3ccccc3N(CCN(C)C)C(=O)[C@@H]2OC(C)=O)cc1 (relative stereo) [Diltiazem, cis-(+)-3-(acetyloxy)-5-[2-(dimethylamino)ethyl]-2,3-dihydro-2-(4-methoxyphenyl)-1,5-benzothiazepin-4(5H)-one] | no effect | not protective | 36492 | 32271 | dose-dependent inhibition of membrane oxidation | 44501 | 38293 | 35148 | 31498 | 27258 | – | – | – | – | –
COc1ccc([C@H]2Sc3ccccc3N(CCN(C)C)C(=O)[C@H]2OC(C)=O)cc1 [L-diltiazem] | – | – | – | – | not | 52799 | 49949 | 51120 | 53182 | 49937 | – | – | – | – | –
Cc1ncc(C[n+]2csc(CCO)c2C)c(N)n1 [Thiamine, thiamine] | – | – | – | – | – | – | – | – | – | – | 31113 | 27265 | 23477 | reduced the fluorescence activity | improve liver function
